A short description of data set [1]: In vivo delivery, release and metabolism of diesters after oral or intravenous administration.
Protocol: (§1) GLA was administered in the form of either GLA-GLA or GLA-EPA and EPA was administered in the form of GLA-EPA or EPA-EPA. The diesters were given either orally by gavage or intravenously in the form of a 20% emulsion made using 2% of oat galactolipid as an emulsifier in doses from about 0.1 to 2.0 g/kg. Animals were killed after 1, 2, 4, 8 and 24 hours and plasma, red cells and liver collected. The presence of the unmetabolised diesters was identified by high pressure liquid chromatography. The presence of fatty acids derived from the diesters and of metabolites of those fatty acids was checked by lipid extraction of the liver, plasma or red cells, by separation of that lipid fraction into triglycerides, phospholipids, cholesterol esters and free fatty acids by thin layer chromatography, by methylation of the fatty acids derived from those separated fractions and by analysis of those fatty acids using gas chromatography using methods well described in standard texts.
For data set [2] the following is noted: in vivo, po.
Protocol: as §1
Data set [3] has as its system normal fibroblast line, a breast cancer line and a malignant melanoma line. The note with it: all cell lines: normal fibroblast, results set out in EPA-0 675 103; cited from earlier work.
Data set [4] deals with ASPC-1 human pancreatic cancer. The experiment in a line: ASPC-1 human pancreatic cancer transplanted subcutaneously into nude mice. Type of data set: in vivo. The procedure: As a specific example of the therapeutic efficacy of the diesters, the 1,3 GLA-EPA propane diol diester was tested in the treatment of the ASPC-1 human pancreatic -cancer transplanted subcutaneously into nude mice which because they lack thymus function are able to accept foreign transplants without rejection. 15 mice were each injected subcutaneously with 5 million ASPC-1 cells suspended in Matrigel and DMEM buffer. In all animals a tumour developed whose size could be measured using callipers and whose volume could be estimated from the linear dimensions. Tumour size in each animal was measured twice weekly for five weeks. The animals were divided into three groups. 5 animals were used as controls and received 10 g/kg corn oil per day only. 5 animals received 10 g/kg corn oil per day but in addition received two injections per week of a dose of 1.5 g/kg of the GLA-EPA diester. […] The other 5 animals instead of the corn oil received 10 g/kg/day of the GLA-EPA diester. The treatments were continued for three weeks and then the tumours were allowed to grow for a further two weeks before the animals were sacrificed and the tumours excised and weighed. The mean tumour weights were: control group, 1240±290 mg; intravenous GLA-EPA group, 820±180 mg; oral GLA-EPA group, 490±160 mg. […] Thus the diesters are biologically active ways of administering the various fatty acids. The diesters can therefore be reasonably expected to exert the many desirable effects of the fatty acids which have been noted in many publications in the literature (e.g. Horrobin D F, ed., Omega-6 Essential Fatty Acids: Pathophysiology and Roles in Clinical Medicine: Wiley-Liss, New York, 1990.Simopoulos A P et al, eds, Health Effects of Omega-3 Polyunsaturated Fatty Acids in Seafoods, Karger, Basel, 1991. Fats and Oils in Human Nutrition, World Health Organization, Rome, 1994. Unsaturated Fatty Acids: Nutritional and Physiological Significance. British Nutrition Foundation, Chapman and Hall, London, 1992).

A further data set concerns fasted rats. Nature of the data set: Gastrointestinal ulceration in fasted rats. The note with it: indomethacin 5-30 mg/kg or same amount as diester, sacrificed after 24 hours.

Like-named read-outs stand apart in the source and are kept apart here.

Protocol for fasted rats: Doses of indomethacin known to cause gastrointestinal ulceration (5-30 mg/kg) were given to fasted rats either in the form of free indomnethacin or the same amount of indomethacin in a 1,3-propane diol diester with GLA in the other position. The animals were sacrificed after 24 hours and the whole gastrointestinal tract examined for ulceration.

Take `CCCCCC=CCC=CCC=CCCCCC(=O)OCCCOC(=O)c1cccnc1` [niacin-GLA]: the “absorption and release of active moieties” value (“absorption and release” below) in data set [1] (oral administration) was “absorbed following oral administration and to release their active moieties”.

Regarding `CCCCC/C=C\C/C=C\C/C=C\CCCCC(=O)OCCCOC(=O)CCCC/C=C\C/C=C\C/C=C\CCCCC` [GLA-GLA, 1,3-(di-z,z,z-Octadeca-6,9,12-trienoyloxy)propane], the “absorption and release” value in data set [2] is “absorbed following oral administration and to release their active moieties”.

For `CCCCC/C=C\C/C=C\C/C=C\CCCCC(=O)OCCCOC(=O)Cc1c(C)n(C(=O)c2ccc(Cl)cc2)c2ccc(OC)cc12` [indomethacin-GLA], the “intracellular level after incubation (cell penetration)” value in data set [3] is “very substantial amounts of both indomethacin-GLA and free indomethacin”.

Take `CC/C=C\C/C=C\C/C=C\C/C=C\C/C=C\CCCC(=O)OCCCOC(=O)CCCC/C=C\C/C=C\C/C=C\CCCCC` [GLA-EPA, 1-(z,z,z-Octadeca-6,9,12-trienoyloxy)-3-(z,z,z,z,z-eicosa-5,8,11,14,17-pentaenoyloxy)propane]: in data set [4] (both oral and intravenous administration), the tumour growth entry is listed as “substantially inhibited”. In data set [4] (intravenous, 1.5 g/kg two injections per week for three weeks, 20% emulsion, tumours weighed at five weeks), the mean tumour weight came out at 820 ± 180 mg. Further, in data set [4] (mouse, in vivo), the “side effects or distress in the animals” value is “without causing any side effects or distress”. The “tolerability of the intravenous emulsion” value in data set [4] (nude mice, 20% emulsion with 2% oat galactolipid, 1.5 g/kg twice weekly) is “very well tolerated and caused no haemolysis or thrombophlebitis”. Besides, in data set [1] (intravenous infusion and oral administration of the diester emulsion), the “in vivo release of free GLA and EPA” value is “rapid in vivo release of free GLA and EPA”.

With `COc1ccc2c(c1)c(CC(=O)O)c(C)n2C(=O)c1ccc(Cl)cc1` [indomethacin, reference compound], the “intracellular level after incubation (cell penetration)” value in data set [3] was “very low”. Moreover, the “ulceration of the whole gastrointestinal tract” value in the data set on fasted rats is reported as “extensive ulceration”.

`CCCCC/C=C\C/C=C\C/C=C\CCCCC(=O)OCCCOC(=O)Cc1c(C)n(C(=O)c2ccc(Cl)cc2)c2ccc(OC)cc12` [GLA-indomethacin, 1-(z,z,z-Octadeca-6,9,12-trienoyloxy)-3-(I-(4-chlorobenzoyl)-5-methoxy-2-methyl-indole-3-acetyloxy)propane]: in data set [2], the “absorption and release” value is “absorbed following oral administration and to release their active moieties”.

The record behind these values is patent USRE43632E1, “1,3-propane diol esters and ethers and methods for their use in drug delivery” (Scarista, Ltd., priority 1995, dated 2012).
